Each compound was assayed on HCV 1b-377-neo replicon cells (assay: HCV replicon assay, HCV 1b-377-neo replicon cells (1b FRET)). Settings: Hepatitis C virus, HCV 1b-377-neo replicon cells; HCV 1b genotype; read-out: EC50 range against HCV 1b (Table 2, Range).
Type: cell-based, Hepatitis C virus genotype 1b
Procedure, shortened: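 Compounds tested in HCV genotype 1b-377-neo replicon cells with a FRET read-out. Cells resistant to a reference NS5A inhibitor through a Y2065H NS5A mutation were run alongside wild-type cells.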
Work on `COC(=O)N[C@@H](C(=O)N1CCC[C@H]1c1ncc(-c2ccc(-c3ccc(-c4cnc([C@@H]5CCCN5C(=O)[C@H]5CCCO5)[nH]4)cn3)cc2)[nH]1)c1ccccc1` [Example 141, methyl ((1R)-2-oxo-1-phenyl-2-((2S)-2-(5-(4-(5-(2-((2S)-1((2R)-tetrahydro-2-furanylcarbonyl)-2-pyrrolidinyl)-1H-imidazol-5-yl)-2-pyridinyl)phenyl)-1H-imidazol-2-yl)-1-pyrrolidinyl)ethyl)carbamate] yielded an EC50 of 0.001 to 0.999 nM. Compound `COC(=O)N[C@H](C(=O)N1CCC[C@H]1c1ncc(-c2ccc(-c3ccc(-c4cnc([C@@H]5CC(F)(F)CN5C(=O)[C@@H](NC(=O)OC)C(C)C)[nH]4)cc3)cc2)[nH]1)C(C)C` [OL-12, methyl ((1S)-1-(((2S)-2-(4-(4′-(2-((2S)-4,4-difluoro-1-((2S)-2-((methoxycarbonyl)amino)-3-methylbutanoyl)-2-pyrrolidinyl)-1H-imidazol-4-yl)-4-biphenylyl)-1H-imidazol-2-yl)-1-pyrrolidinyl)carbonyl)-2-methylpropyl)carbamate] has an EC50 of 0.001 to 0.999 nM. Compound `COC(=O)N[C@@H](Cc1ccncc1)C(=O)N1CCC[C@H]1c1ncc(-c2ccc(-c3ccc(-c4cnc([C@@H]5CCCN5C(=O)[C@@H](NC(=O)OC)C(C)C)[nH]4)cc3)cc2)[nH]1` [cj-88, methyl ((1S)-2-((2S)-2-(5-(4′-(2-((2S)-1-((2S)-2-((methoxycarbonyl)amino)-3-methylbutanoyl)-2-pyrrolidinyl)-1H-imidazol-5-yl)-4-biphenylyl)-1H-imidazol-2-yl)-1-pyrrolidinyl)-2-oxo-1-(4-pyridinylmethyl)ethyl)carbamate] has an EC50 of 0.001 to 0.999 nM. Work on `COC(=O)N[C@@H](C(=O)N1CCC[C@H]1c1ncc(-c2ccc(-c3ccc(-c4cnc([C@@H]5CCCN5C(=O)COc5ccccc5OC)[nH]4)cc3)cc2)[nH]1)c1ccccc1` [Example 84-26, methyl ((1R)-2-((2S)-2-(5-(4′-(2-((2S)-1-((2-methoxyphenoxy)acetyl)-2-pyrrolidinyl)-1H-imidazol-5-yl)-4-biphenylyl)-1H-imidazol-2-yl)-1-pyrrolidinyl)-2-oxo-1-phenylethyl)carbamate] yielded an EC50 of 0.001 to 0.999 nM. With `COC(=O)N[C@@H](C(=O)N1CCC[C@H]1c1ncc(-c2ccc(-c3ccc(-c4cnc([C@@H]5CCCN5C(=O)C5CC5)[nH]4)cc3)cc2)[nH]1)c1ccccc1` [Example 33, methyl ((1R)-2-((2S)-2-(5-(4′-(2-((2S)-1-(cyclopropylcarbonyl)-2-pyrrolidinyl)-1H-imidazol-5-yl)-4-biphenylyl)-1H-imidazol-2-yl)-1-pyrrolidinyl)-2-oxo-1-phenylethyl)carbamate] the EC50 was 0.001 to 0.999 nM. `CN(C)[C@@H](C(=O)N1CCC[C@H]1c1ncc(-c2ccc(-c3ccc(-c4cnc([C@@H]5CCCN5C(=O)[C@H]5CCCO5)[nH]4)cc3)cc2)[nH]1)c1ccccc1` [Example 86, (1R)-N,N-dimethyl-2-oxo-1-phenyl-2-((2S)-2-(5-(4′-(2-((2S)-1-((2R)-tetrahydro-2-furanylcarbonyl)-2-pyrrolidinyl)-1H-imidazol-5-yl)-4-biphenylyl)-1H-imidazol-2-yl)-1-pyrrolidinyl)ethanamine] showed an EC50 of 0.001 to 0.999 nM. Compound `COC(=O)N[C@H](C(=O)N1CCC[C@H]1c1ncc(-c2ccc(-c3ccc(-c4nc([C@@H]5CCCN5C(=O)[C@@H](NC(=O)OC)C(C)C)[nH]c4CC(OC)OC)cc3)cc2)[nH]1)C(C)C` [Example J14a.1, methyl ((1S)-1-(((2S)-2-(4-(2,2-dimethoxyethyl)-5-(4′-(2-((2S)-1-((2S)-2-((methoxycarbonyl)amino)-3-methylbutanoyl)-2-pyrrolidinyl)-1H-imidazol-4-yl)-4-biphenylyl)-1H-imidazol-2-yl)-1-pyrrolidinyl)carbonyl)-2-methylpropyl)carbamate] has an EC50 of 0.001 to 0.999 nM. With `CN(C)[C@@H](C(=O)N1C[C@@H](F)C[C@H]1c1ncc(-c2ccc(-c3ccc(-c4cnc([C@@H]5C[C@H](F)CN5C(=O)[C@@H](c5ccccc5)N(C)C)[nH]4)cc3)cc2)[nH]1)c1ccccc1` [Example 24-5] the EC50 was 0.001 to 0.999 nM. For `COC(=O)N[C@@H](C(=O)N1CCC[C@H]1c1ncc(-c2ccc(-c3ccc(-c4cnc([C@@H]5CCCN5C(=O)[C@H](NC(=O)OC)c5ccccc5Cl)[nH]4)cc3)cc2)[nH]1)c1ccccc1Cl` [Example 24-3, dimethyl (4,4′-biphenyldiylbis(1H-imidazole-5,2-diyl(2S)-2,1-pyrrolidinediyl((1R)-1-(2-chlorophenyl)-2-oxo-2,1-ethanediyl)))biscarbamate], the EC50 was 0.001 to 0.999 nM. For `CCNC(=O)N[C@@H](C(=O)N1CCC[C@H]1c1ncc(-c2ccc(-c3ccc(-c4cnc([C@@H]5CCCN5C(=O)[C@H](NC(=O)NCC)c5ccccc5)[nH]4)cc3)cc2)[nH]1)c1ccccc1` [Example 24-4c, N′,N′′′-(4,4′-biphenyldiylbis(1H-imidazole-5,2-diyl(2S)-2,1-pyrrolidinediyl((1R)-2-oxo-1-phenyl-2,1-ethanediyl)))bis(1-ethylurea)], the EC50 was 0.001 to 0.999 nM. With `CN(C)Cc1ccccc1CC(=O)N1CCC[C@H]1c1ncc(-c2ccc(-c3ccc(-c4cnc([C@@H]5CCCN5C(=O)[C@@H](c5ccccc5)N5CCCCC5)[nH]4)cc3)cc2)[nH]1` [Example 107-23, N,N-dimethyl-1-(2-(2-oxo-2-((2S)-2-(5-(4′-(2-((2S)-1-((2R)-2-phenyl-2-(1-piperidinyl)acetyl)-2-pyrrolidinyl)-1H-imidazol-5-yl)-4-biphenylyl)-1H-imidazol-2-yl)-1-pyrrolidinyl)ethyl)phenyl) methanamine] the EC50 was 0.001 to 0.999 nM. In the case of `COC(=O)N[C@H](CC(=O)N1CCC[C@H]1c1ncc(-c2ccc(-c3ccc(-c4cnc([C@@H]5CCCN5C(=O)C[C@@H](NC(=O)OC)c5ccccc5)[nH]4)cc3)cc2)[nH]1)c1ccccc1` [cj-128, methyl ((1R)-3-((2S)-2-(5-(4′-(2-(1-((3R)-3-((methoxycarbonyl)amino)-3-phenylpropanoyl)-2-pyrrolidinyl)-1H-imidazol-5-yl)-4-biphenylyl)-1H-imidazol-2-yl)-1-pyrrolidinyl)-3-oxo-1-phenylpropyl)carbamate], the EC50 is reported as 0.001 to 0.999 nM. `COC(=O)N[C@H](C(=O)N1CCC[C@@H]1c1ncc(-c2ccc(-c3ccc(-c4cnc([C@H]5CCCN5C(=O)[C@@H](NC(=O)OC)C(C)C)[nH]4)cc3)cc2)[nH]1)C(C)C` [Example M28, methyl ((1S)-1-(((2R)-2-(5-(4′-(2-((2R)-1-((2S)-2-((methoxycarbonyl)amino)-3-methylbutanoyl)-2-pyrrolidinyl)-1H-imidazol-5-yl)-4-biphenylyl)-1H-imidazol-2-yl)-1-pyrrolidinyl)carbonyl)-2-methylpropyl)carbamate] showed an EC50 of 1000 to 10000 nM. Work on `COC(=O)N[C@H](C(=O)N1CCC[C@H]1c1nc(-c2ccc(-c3ccc(-c4cnc([C@@H]5CCCN5C(=O)[C@@H](NC(=O)OC)C5CCOCC5)[nH]4)cc3)cc2)c[nH]1)C1CCOCC1` [Example F38, methyl ((1S)-2-((2S)-2-(4-(4′-(2-((2S)-1-((2S)-2-((methoxycarbonyl)amino)-2-(tetrahydro-2H-pyran-4-yl)acetyl)-2-pyrrolidinyl)-1H-imidazol-5-yl)-4-biphenylyl)-1H-imidazol-2-yl)-1-pyrrolidinyl)-2-oxo-1-(tetrahydro-2H-pyran-4-yl)ethyl)carbamate] yielded an EC50 of 0.001 to 0.999 nM. Compound `CCCN[C@@H](C(=O)N1CCC[C@H]1c1nc(-c2ccc(-c3ccc(-c4cnc([C@@H]5CCCN5C(=O)[C@H](NCCC)c5ccccc5)[nH]4)cc3)cc2)c[nH]1)c1ccccc1` [Example F16, N-((1R)-2-oxo-1-phenyl-2-((2S)-2-(4-(4′-(2-((2S)-1-((2R)-2-phenyl-2-(propylamino)acetyl)-2-pyrrolidinyl)-1H-imidazol-5-yl)-4-biphenylyl)-1H-imidazol-2-yl)-1-pyrrolidinyl)ethyl)-1-propanamine] has an EC50 of 0.001 to 0.999 nM. For `CN(C)[C@@H](C(=O)N1CCC[C@H]1c1ncc(-c2ccc(-c3ccc(-c4cnc([C@@H]5CCCN5C(=O)[C@H]5CCC(=O)N5)[nH]4)cc3)cc2)[nH]1)c1ccccc1` [Example 94-2, (5R)-5-(((2S)-2-(5-(4′-(2-((2S)-1-((2R)-2-(dimethylamino)-2-phenylacetyl)-2-pyrrolidinyl)-1H-imidazol-5-yl)-4-biphenylyl)-1H-imidazol-2-yl)-1-pyrrolidinyl)carbonyl)-2-pyrrolidinone], the EC50 was 1 to 99 nM. `O=C([C@@H](c1ccccc1)N1CCCC1)N1CCC[C@H]1c1ncc(-c2ccc(-c3ccc(-c4cnc([C@@H]5CCCN5C(=O)[C@@H](c5ccccc5)N5CCCC5)[nH]4)cc3)cc2)[nH]1` [Example 17, 5,5′-(4,4′-biphenyldiyl)bis(2-((2S)-1-((2R)-2-phenyl-2-(1-pyrrolidinyl)acetyl)-2-pyrrolidinyl)-1H-imidazole)] was tested, and the EC50 was 0.001 to 0.999 nM. Work on `COC(=O)N[C@@H](Cc1ccccn1)C(=O)N1CCC[C@H]1c1ncc(-c2ccc(-c3ccc(-c4cnc([C@@H]5CCCN5C(=O)[C@@H](NC(=O)OC)C(C)C)[nH]4)cc3)cc2)[nH]1` [cj-65, methyl ((1S)-1-(((2S)-2-(5-(4′-(2-((2S)-1-((2S)-2-((methoxycarbonyl)amino)-3-(2-pyridinyl)propanoyl)-2-pyrrolidinyl)-1H-imidazol-5-yl)-4-biphenylyl)-1H-imidazol-2-yl)-1-pyrrolidinyl)carbonyl)-2-methylpropyl)carbamate] yielded an EC50 of 0.001 to 0.999 nM. With `CN1CCC[C@H]1C(=O)N[C@@H](C(=O)N1CCC[C@H]1c1ncc(-c2ccc(-c3ccc(-c4cnc([C@@H]5CCCN5C(=O)[C@@H]5CCCO5)[nH]4)cc3)cc2)[nH]1)c1ccccc1` [Example 113, 1-methyl-N-((1R)-2-oxo-1-phenyl-2-((2S)-2-(5-(4′-(2-((2S)-1-((2S)-tetrahydro-2-furanylcarbonyl)-2-pyrrolidinyl)-1H-imidazol-5-yl)-4-biphenylyl)-1H-imidazol-2-yl)-1-pyrrolidinyl)ethyl)-L-prolinamide] the EC50 was 0.001 to 0.999 nM. `COC(=O)N[C@H](C(=O)N1CCC[C@H]1c1ncc(-c2ccc(-c3ccc(-c4cnc([C@@H]5CCCN5C(=O)c5c[nH]cn5)[nH]4)cc3)cc2)[nH]1)C(C)C` [Example M87, methyl ((1S)-1-(((2S)-2-(5-(4′-(2-((2S)-1-(1H-imidazol-4-ylcarbonyl)-2-pyrrolidinyl)-1H-imidazol-5-yl)-4-biphenylyl)-1H-imidazol-2-yl)-1-pyrrolidinyl)carbonyl)-2-methylpropyl)carbamate] was tested, and the EC50 was 1 to 99 nM.

Source: patent publication US8574563B2 (Bristol-Myers Squibb Company, priority 2006, dated 2013)
